For one data set, the system named is DOHH2 cell proliferation. As to the kind of experiment: In vitro cell proliferation inhibitory activity test (CTG), DOHH2. The format is cell-based. Conditions: Homo sapiens, DOHH-2. As for the experimental part: Test Example 4: In Vitro Cell Proliferation Inhibitory Activity Test
Cells were cultured in 1640 medium, added with 10% inactivated FBS and 1% double antibiotics, and cultured at 37° C. and 5% CO2.
(1) Cells were routinely cultured until the cell density was 80%-90%, and the cells were harvested when their number reached the requirement.
(2) Cells were resuspended with corresponding culture medium, counted, and prepared into cell suspension at appropriate density.
(3) The cell suspension was added to a 96-well plate, 100 μL per well.
(4) Cells were cultured overnight in a 37° C., 5% CO2 incubator.
(1) The compounds to be tested were diluted with DMSO to make a stock solution with a final concentration of 20 mM for later use.
(2) The stock solution was diluted 10 times from 20 mM to 2 mM with DMSO, and then diluted 3 times from 2 mM to 9 concentrations.
(3) The blank control wells were cells plus 0.5% DMSO, as high-reading control wells.
(4) Wells with no cells and only medium were used as low-reading control wells.
4: Cell treatment with compound
(1) 24 h after the cells were plated, the compounds acted alone, and 99 μL of growth medium was added to each well, followed by 1 μL of the compound prepared in step 3. The plate was shaken gently to mix uniformly, and then placed in a 37° C., 5% CO2 incubator.
(2) The cell plate was placed in an incubator for 72 h.
5: Detection by CTG method
(1) The cell plate to be tested was placed at room temperature for 30 min, and 100 μL of medium was discarded from each well.
(2) 100 μL of CTG reagent (CelltiterGlo kit) was added to each well, placed on a fast shaker for 2 min, and stood at room temperature in the dark for 30 min.
(3) The chemiluminescent signal value was read with the Envision instrument.
IC50 was calculated by using GraphPad Prism 8 software. The IC50 (half inhibitory concentration) of the compound was derived using the following nonlinear fitting formula, and the results are shown in the following table:
Y=Bottom+(Top−Bottom)/(1+10^((Log IC50−X)×HillSlope))
X: log value of compound concentration, Y: inhibition rate (% inhibition)
Inhibition rate (% inhibition)=(reading of high-reading control well-reading of compound well)/(reading of high-reading control well-reading of low-reading control well)×100

Data set [1] can be described thus: Pharmacokinetic test, oral, SD rats. In kind it is in vivo. Conditions: rat, plasma, oral 10 mg/kg. As for the experimental part:
Each test compound was administered orally (10 mg/kg, 3 rats in each group) to SD rats for pharmacokinetic study. […] Animals were fasted overnight before oral administration, and fed again after 4 h of administration. […] At each collection time point, 3 whole blood samples were collected at a the collection volume of about 0.2-0.3 mL. […] The collected plasma was stored at −20° C. before analysis. 20 μL of plasma sample was added into a 1.6 mL 96-well deep-well plate, added with 200 μL of working internal standard solution (the same volume of vehicle was added to the blank instead of internal standard), vortexed for 1 min, and centrifuged at 5800 rpm for 10 min. 100 μL of the supernatant was added to a 96-well injection plate for LC-MS/MS analysis.

The next data set has as its system TMD8 cell proliferation. Nature of the data set: In vitro cell proliferation inhibitory activity test (CTG), TMD8. The format is cell-based. The conditions noted are these: Homo sapiens, TMD8, 72 h, TMD8 cells. Put shortly:
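Cells in 1640 medium with 10% FBS were plated overnight, then exposed for 72 h at 37 °C to 9 threefold dilutions from a 2 mM DMSO working stock, with 0.5% DMSO as the high control. CellTiter-Glo luminescence was read, and % inhibition was scaled to the DMSO and cell-free wells. IC50 came from a four-parameter nonlinear fit.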

These results are taken from patent publication US20230257383A1, “COMPOUND SERVING AS BTK INHIBITOR, PREPARATION METHOD THEREFOR, AND USE THEREOF” (CHENGDU HYPERWAY PHARMACEUTICALS CO., LTD., priority 2020, published 2023).

SMILES strings stand for the structures.

As for `Nc1nccn2c(C3CCC(CO)OC3)nc(-c3ccc(C(F)(F)c4ccccc4)cc3)c12` (single isomer, unassigned) [Example 111-P1], the IC50 in the data set on DOHH2 cell proliferation was 0.116 µM.

On to `Nc1nccn2c(C34CCC(CO)(CC3)OC4)nc(-c3ccc(C(F)(F)c4ccccc4F)cc3)c12` [Example 145], for which, in data set [1], the AUC(0-inf) came out at 17200 ng·h/mL and the Cmax was 1550 ng/mL. In data set [1] (read-out: T½ (converted)), the half-life was 2.78 h.

In the case of `Nc1nccn2c(C34CCC(CO)(CC3)OC4)nc(-c3ccc(C(F)(F)c4ccccc4)cc3)c12` [Example 125], the concentration for half-maximal inhibition (IC50) in the data set with TMD8 cell proliferation is 0.0924 µM; in the data set on DOHH2 cell proliferation it was 0.114 µM.

As a reminder, the IC50 is the concentration that inhibits the measured activity by half. Read a high IC50 as weaker potency. For orientation: AUC(0-inf) means total exposure, with the tail of the curve extrapolated. In general, Cmax refers to the highest concentration seen after dosing.
